Laboratory results: PubChem BioAssay AID179 (DTP/NCI, 2004)
Active and inactive are the calls of the source.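 How the source made its calls: active means compounds giving half or more protection of infected cells from virus-caused growth loss, again on retest; inactive means the rest.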 *1 amine or outer side, *2 acyl side, *3 side chain or, on linkers, in order; H or OH if unused. Where a SMILES comes first, the peptide text is derived from it. [ ]: non-standard residue; d: D form. X1 = O=C(C1=CN(Cc2ccccc2)C=CC1N[*:1])[*:2]

Test system: CEM cells HIV-1 protection, formazan growth assay
Experiment: NCI AIDS Antiviral Assay
Conditions: for IC50: measured here: growth of uninfected CEM cells
Summary of the method: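 CEM (human) cells, HIV-1 infected vs uninfected, 5-point dosing, formazan growth read-out. Retest threshold 50% protection.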

| SMILES | EC50 | IC50 | outcome |
| --- | --- | --- | --- |
| O=c1cn[nH]c2ccccc12 | > 741 µM | > 741 µM | – |
| CCOC(=O)C1Oc2ccc([N+](=O)[O-])c3c2C1(O)CCC3 (stereo not drawn) | – | – | inactive |
| C[C@H](CSC(=O)c1ccccc1)C(=O)N1c2ccccc2C[C@H]1C(=O)O | > 200 µM | 107 µM | – |
| COc1cc2c(cc1OC)C(=O)/C(=C/c1ccc([N+](=O)[O-])cc1)CC2 | 155 µM | > 200 µM | – |
| NNC(=O)C1CC2c3ccccc3C1c1ccccc12 (stereo not drawn) | – | – | inactive |
| CCC(C)C(CC)(C(=O)O)C(=O)O (stereo not drawn) | > 1320 µM | 380 µM | – |
| O=c1oc2ccc([N+](=O)[O-])cc2cc1-c1csc(-c2ccccc2)n1 | – | – | inactive |
| Cc1[nH]n(-c2ncc(C#N)c(=O)[nH]2)c(=O)c1CCO | > 200 µM | > 200 µM | – |
| NNC1=N/C(=C\c2ccco2)C(=O)N1 | > 200 µM | 162 µM | – |
| Cc1cc(S(=O)(=O)Nc2nnc3c4ccccc4cnn23)c(S)cc1Cl | 56.2 µM | 1170 µM | – |
| Cc1c(CN2CCN(C)CC2)c(CN2CCN(C)CC2)c(C)n1-c1ccc(Cl)cc1 | > 151 µM | 26.3 µM | – |
| CCOC(=O)[C@]12C(=C(c3ccccc3)O[C@H]3C=CCC[C@H]31)C(=O)C(=O)N2c1ccccc1 | > 200 µM | 75.9 µM | – |
| COC(=O)c1c2c(cc3c1CC1(Cc4ccccc4C1=O)C3)CCC2 (stereo not drawn) | > 200 µM | 13.5 µM | – |
| CCOC(=O)CCC(=O)C1c2cccc(O)c2C(=O)c2c(O)cccc21 | > 28.2 µM | 4.9 µM | – |
| O=C1CCCC/C(=C/c2ccccc2)N1 | – | – | inactive |
| O=C1NC(=O)C2(c3ccccc3)CCN1C2=O (stereo not drawn) | > 200 µM | > 200 µM | – |
| CC1NC(=O)C(C(C)C)NC(=O)C2=CN(Cc3ccccc3)C=CC2NC(=O)C(C)NC(=O)C(C(C)C)NC(=O)C2=CN(Cc3ccccc3)C=CC2NC1=O (stereo not drawn) (cyclo([X1]VA[X1]VA); configuration not given here) | > 23.4 µM | > 23.4 µM | – |
| CCOC(=O)CN(c1scc(-c2ccccc2)c1C(=O)OCC)S(=O)(=O)c1ccc(C)cc1 | > 200 µM | 9.33 µM | – |
| CC(=O)/C(=C/c1cccc(C#N)c1)C(=O)c1ccccc1 | > 36.3 µM | 17.4 µM | – |
| O=C(O)C12C3CCCC1C2CC3 (stereo not drawn) | – | – | inactive |
| S=C(Nc1ccc(N=Nc2ccccc2)cc1)SCc1ccc2c(c1)OCO2 | > 200 µM | 10.7 µM | – |
| N#CC(C(=O)/C(=N\Nc1nc(=S)[nH]n1N)C(C#N)c1ccc(Cl)cc1)c1ccc(Cl)cc1 (stereo not drawn) | > 53.7 µM | > 53.7 µM | – |

| SMILES | EC50 | IC50 | outcome |
| --- | --- | --- | --- |
| Cc1c(Cl)c(=O)oc2c3c(ccc12)OC(C)(C)[C@H](OC(=O)C12CCC(C)(C(=O)O1)C2(C)C)[C@@H]3OC(=O)C12CCC(C)(C(=O)O1)C2(C)C (stereo partly drawn) | 0.282 µM | 5.62 µM | – |
| Cc1ccc(C(=O)CC2=Nc3nnc(CCCCCCCc4nnc5n4C(=O)C(CC(=O)c4ccc(C)cc4)=N5)n3C2=O)cc1 | > 2.4 µM | > 2.4 µM | – |
| COc1ccc(OC)c(Cc2c(OC)ccc(OC)c2O)c1O | – | – | inactive |
| CCCCc1ccc(-n2sc3ncc(-c4ccccc4)cc3c2=O)cc1 | 95.5 µM | 117 µM | – |
| CC1CCC/C(=N/NC(N)=O)C12CC2 (stereo not drawn) | > 200 µM | > 200 µM | – |
| CCCCc1c(N(C)C)c(OC(C)=O)c(-c2cn(C)c3ccccc23)oc1=O | > 200 µM | 31.6 µM | – |
| Cc1ccc([N+](=O)[O-])c2c(NCCC[N+](C)(C)[O-])ccnc12 | > 200 µM | 28.8 µM | – |
| CCCNCc1c2c(O)c3c(O)c(C)c4c(c3c1O)C(=O)C(C)(O/C=C/C(OC)C(C)C(OC(C)=O)C(C)C(O)C(C)C(O)C(C)/C=C/C=C(/C)C(=O)N2)O4 (stereo not drawn) | > 200 µM | 3.8 µM | – |
| O=[N+]([O-])c1ccc(-n2cccc2)cc1 | > 200 µM | 22.9 µM | – |
| CCCCCCCCCCCCCCCC(=O)Nc1ccn(C2CCC(COP(=O)(O)OC3CC(n4cc(F)c(=O)[nH]c4=O)OC3CO)O2)c(=O)n1 (stereo not drawn) | > 0.126 µM | 0.038 µM | – |
| CC[N+](CC)=c1ccc2nc3c(cc(N)c4ccccc43)oc-2c1 | > 200 µM | 3.8 µM | – |
| COC1(OC)C2(Cl)C(Cl)=C(Cl)C1(Cl)C1C=CC=CC12 (stereo not drawn) | – | – | inactive |
| COc1c(Cc2cc(Cl)cc(S(=O)(=O)N(C)C)c2OC)cc(Cl)cc1S(=O)(=O)N(C)C | > 14.1 µM | > 14.1 µM | – |
| COC(=O)N1CCCCC(CCC#CC[Si](C)(C)C)C1=O (stereo not drawn) | > 120 µM | 110 µM | – |
| CC1(C)OC[C@@H](O)[C@H](Br)CO1 | > 200 µM | 77.6 µM | – |
| Cc1cc(C)nc(NS(=O)(=O)c2ccc(NC(=O)c3cccc4c(Nc5ccc(S(=O)(=O)N=C(N)N)cc5)c5ccc(Cl)cc5nc34)cc2)n1 | > 49 µM | > 49 µM | – |
| COC(=O)C(=O)C(CC(=O)Nc1cccc(C(F)(F)F)c1)C(=O)OC (stereo not drawn) | > 14.5 µM | > 14.5 µM | – |
| O=c1[nH]nc(Cc2ccccc2)n1C1CCCC1 | > 200 µM | > 200 µM | – |
| NC(=S)N/N=C/c1cc(=O)c2cc(Cl)ccc2o1 | > 66.1 µM | > 66.1 µM | – |
| Cc1noc2cccc(O)c12 | – | – | inactive |
| CC1(C)C(C#N)C1C1=C(N2CCOCC2)[C@]2(C)C(OC(=O)c3ccccc3)CC[C@@H]2C1 (stereo partly drawn) | > 50.1 µM | 38.9 µM | – |
| c1ccc2c(c1)nnn1c3ncccc3nc21 | > 58.9 µM | 23.4 µM | – |

| SMILES | EC50 | IC50 | outcome |
| --- | --- | --- | --- |
| CCN(CC)C(=O)N1CCN(C)CC1 | > 200 µM | > 200 µM | inactive |
| CCNC(=O)COc1cc2c(O)c3c(O)c(C)c4c(c13)C(=O)C(C)(O/C=C/C(OC)C(C)C(OC(C)=O)C(C)C(O)C(C)C(O)C(C)/C=C/C=C(\C)C(=O)N2)O4 (stereo not drawn) | > 200 µM | 83.2 µM | – |
| N#CN=C(N)NC#N | > 1700 µM | > 1700 µM | – |
| C=C(C=O)[C@@H]1C2OC(=O)C(=C)[C@@H]2CC(O)[C@@]1(C)CC (stereo partly drawn) | > 151 µM | 5.89 µM | – |
| COc1ccccc1N1C(=O)C2C3c4ccccc4C(OC(C)=O)(c4ccccc43)C2C1=O (stereo not drawn) | > 200 µM | > 200 µM | – |
| CC(=O)Oc1cc(OC(C)=O)c2c(C)cc(=O)oc2c1 | > 200 µM | 148 µM | – |
| c1ccc(C2=NN(c3ccccc3)CC2)cc1 | – | – | inactive |
| Cc1ccc(SSCCCCCS(=O)O)cc1 | – | – | inactive |
| Cn1c(=O)c2c(no[n+]2[O-])n(C)c1=O | > 200 µM | 13.2 µM | – |
| CC(=O)NC(/C=C\C(=O)O)C(=O)O (stereo not drawn) | > 200 µM | > 200 µM | – |
| O=c1[nH]c(=O)n(COCc2ccccc2)c2ccc([N+](=O)[O-])cc12 | > 200 µM | > 200 µM | – |
| COc1ccc2c(c1)N=C(N)n1c(nc3ccccc31)S2 | > 200 µM | 6.61 µM | – |
| Clc1ccc2nsnc2c1 | – | – | inactive |
| CCC(c1nc2ccccc2c(=O)n1NC(=O)C(C)(C)C)C1(O)CCCCC1 (stereo not drawn) | > 200 µM | 107 µM | – |
| COC(=O)N[C@H](C(=O)NC(OCc1ccccc1)C1COC(C)(C)O1)C(C)O[Si](C)(C)C(C)(C)C (stereo partly drawn) | > 70.8 µM | > 70.8 µM | – |
| Cc1cc(CC(O)c2ccc(Cl)c(Cl)c2)nc(=O)[nH]1 (stereo not drawn) | > 9.12 µM | > 9.12 µM | – |
| CC(O)CN(N)CC(C)O (stereo not drawn) | – | – | inactive |
| Cc1cc(S(=O)(=O)Nc2n[nH]c(N)n2)c(S)cc1Cl | > 200 µM | > 200 µM | – |
| O=C(O)CCCO | > 200 µM | > 200 µM | – |
| CCOC(=O)[C@@]12C(=O)[C@@H](C)CC[C@@H]1[C@@H](C)C[C@H]2C=C(C)C | > 200 µM | 110 µM | – |
| CSc1n[nH]c(NC(=O)c2cccc(C(F)(F)F)c2)n1 | > 44.7 µM | > 44.7 µM | – |
| COc1ccc(C(=C2C(=O)N(c3ccccc3)C(=O)C2=C(C)C)c2ccc(OC)cc2)cc1 | > 200 µM | 3.39 µM | – |

| SMILES | EC50 | IC50 | outcome |
| --- | --- | --- | --- |
| CC(=O)OC1CN2CC[C@H](O)C2C(O)[C@@H]1O (stereo partly drawn) | 41.7 µM | 1070 µM | – |
| Cc1ccccc1N1C(=O)/C(=C/c2ccc(N(CCC#N)CCC#N)cc2)N=C1c1cc([N+](=O)[O-])ccc1Cl | > 9.77 µM | > 9.77 µM | – |
| O=C1C2=Nc3ccccc3C(O)(C(=O)O)N2c2ccccc21 (stereo not drawn) | > 200 µM | 16.6 µM | – |
| Nc1ncnc2c1ncn2C1CC(CO)C(CO)C1 (stereo not drawn) | > 95.5 µM | > 95.5 µM | – |
| Nc1ccc(S(=O)(=O)c2ccc(N)cc2)cc1 | – | – | inactive |
| ONC1=Nc2cc(Cl)ccc2C(=S)N2CSCC12 (stereo not drawn) | > 200 µM | > 200 µM | – |
| CCc1cc2c(c3c1CCCC3=O)CC1(C2)Cc2cc(CC)c3c(c2C1)C(=O)CCC3 | > 200 µM | 138 µM | – |
| COC(=O)[C@@]12CSC[C@]1(C(=O)OC)N[C@@H](c1ccccc1O)C2 | > 200 µM | > 200 µM | – |
| O=C(CSc1nnc(-c2ccc(N=Cc3ccc(Cl)cc3)cc2)o1)Nc1ccc(Cl)cc1Cl | > 34.7 µM | 25.1 µM | – |
| Cc1oc2c(c1C)S(=O)(=O)C(C#N)=CN2 | > 200 µM | > 200 µM | – |
| O=C(O)CC(NC(=O)C(F)(F)F)C(=O)NC1Cc2ccccc2OC1=O (stereo not drawn) | > 200 µM | > 200 µM | – |
| CCc1cccc(C(C)(C)C)c1NC(=S)N/C=C(\C#N)C(=O)c1ccc2ccccc2c1 | > 200 µM | 93.3 µM | – |
| COC(=O)c1ccccc1NC(=O)C(=O)CC(=O)CC(c1ccccc1)c1c(O)c2ccccc2oc1=O (stereo not drawn) | > 490 µM | 245 µM | – |
| O=C(O)CCc1ccc2c(c1)CC1(Cc3ccccc3C1)C2 | > 200 µM | 102 µM | – |
| NC(=O)CCS(=O)(=O)O | > 200 µM | > 200 µM | – |
| COc1ccc(Nc2c(C#N)c3n(c4ccccc24)c2ccccc2[n+]3C)cc1OC | > 200 µM | 3.09 µM | – |
| COC(=O)[C@H]1N[C@@H](C(=O)OC)C23CCC[C@H]2CC[C@]1(C(OC)OC)C3 | > 708 µM | 389 µM | – |
| O=C(O)CSC(=O)Nc1ccc(N=Nc2ccccc2)cc1 | – | – | inactive |
| COc1ccc(/C=N/Nc2nnc3c4ccccc4n(C)c3n2)cc1 | > 200 µM | > 200 µM | – |
| O=C1CN=C(c2ccccc2)c2cc(Cl)ccc2N1 | > 26.3 µM | > 26.3 µM | – |
| COc1c2occc2c(S(=O)(=O)O)c2ccc(=O)oc12 | > 302 µM | > 302 µM | – |
| CCC(=O)OC1=C(c2ccccc2)Sc2ccc(Cl)cc2-n2cccc21 | > 200 µM | 12 µM | – |
